pIC50: −log10 of the molar value.
molecular target: Factor D (Homo sapiens (Human), UniProt P00746); test: Factor D esterolytic assay (Z-Lys-SBzl substrate, DTNB, 405 nm); assay type: biochemical; settings: Z-Lys-SBzl 1.29 mM, pH 7.5, 10% DMSO, tested a minimum of three times, read-out: Measured Ki (IC50) Value for Compounds: IC50
Procedure, shortened: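 Human Factor D ([…]) with 1.29 mM Z-Lys-SBzl in 100 mM HEPES, 500 mM NaCl, pH 7.5, 10% DMSO; substrate added immediately or after room-temperature preincubation. Released thiol reacted with DTNB, rate followed at 405 nm for 600 sec, 690 nm background subtracted. IC50 from percent inhibition versus uninhibited rate, n≥3.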

Sequence of Factor D (P00746 26-253): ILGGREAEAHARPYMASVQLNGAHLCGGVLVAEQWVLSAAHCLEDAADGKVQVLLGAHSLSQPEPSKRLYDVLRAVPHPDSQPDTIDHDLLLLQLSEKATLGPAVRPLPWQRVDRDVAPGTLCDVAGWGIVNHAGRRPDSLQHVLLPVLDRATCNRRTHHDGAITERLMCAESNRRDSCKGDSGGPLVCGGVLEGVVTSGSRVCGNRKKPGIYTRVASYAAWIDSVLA

**Q.** How did the pIC50 turn out when `NCc1cccc(-c2cc(COc3ccccc3CC(=O)O)cc3cccnc23)c1` [Compound 285e, 2-(2-((8-(3-(aminomethyl)phenyl)quinolin-6-yl)methoxy)phenyl)acetic acid] was run?
**A.** The pIC50 was > 6.00.

**Q.** `Cc1cc(CC(=O)O)c(OCc2cc(-c3cccc(CN)c3)c3occc3c2)c2c1CCC2` [Compound 286g, 2-(4-((7-(3-(aminomethyl)phenyl)benzofuran-5-yl)methoxy)-7-methyl-2,3-dihydro-1H-inden-5-yl)acetic acid] was tested. Which pIC50 did it give?
**A.** Its pIC50 is > 6.00.

**Q.** How did the pIC50 turn out when `CN(Cc1ccccc1)Cc1cc2cc(COc3ccccc3CC(=O)O)cc(-c3cccc(CN)c3)c2o1` [Compound 287c, 2-(2-((7-(3-(aminomethyl)phenyl)-2-((benzyl(methyl)amino)methyl)benzofuran-5-yl)methoxy)phenyl)acetic acid] was run?
**A.** Its pIC50 is > 6.00.

**Q.** With `NCc1cccc(-c2cc(COc3cc(C(F)(F)F)ccc3CC(=O)O)cc3ccoc23)c1` [Compound 288f, 2-(2-((7-(3-(aminomethyl)phenyl)benzofuran-5-yl)methoxy)-4-(trifluoromethyl)phenyl)acetic acid] as the molecule, how does the pIC50 read?
**A.** The pIC50 was > 6.00.

**Q.** How did the pIC50 turn out when `CNC(=O)c1cc2cc(COc3ccccc3CC(=O)O)cc(-c3cccc(CN)c3)c2o1` [Compound 289d, 2-(2-((7-(3-(aminomethyl)phenyl)-2-(methylcarbamoyl)benzofuran-5-yl)methoxy)phenyl)acetic acid] was run?
**A.** The pIC50 was > 6.00.

**Q.** `NCc1cccc(-c2cc(COc3ccccc3CC(=O)O)cc3cc(C(=O)NCc4ccccc4)oc23)c1` [Compound 290c, 2-(2-((7-(3-(aminomethyl)phenyl)-2-(benzylcarbamoyl)benzofuran-5-yl)methoxy)phenyl)acetic acid] was tested. Which pIC50 did it give?
**A.** The pIC50 was > 6.00.

**Q.** `NCc1cccc(-c2cc(COc3c(CC(=O)O)ccc4occc34)cc3ccoc23)c1` [Compound 291g, 2-(4-((7-(3-(aminomethyl)phenyl)benzofuran-5-yl)methoxy)benzofuran-5-yl)acetic acid] was tested. Which pIC50 did it give?
**A.** The pIC50 was > 6.00.

**Q.** How did the pIC50 turn out when `Cc1ccc(CC(=O)O)c(OCc2cc(-c3cccc(CN)c3)c3occc3c2)c1C` [Compound 292f, 2-(2-((7-(3-(aminomethyl)phenyl)benzofuran-5-yl)methoxy)-3,4-dimethylphenyl)acetic acid] was run?
**A.** The pIC50 was > 6.00.

**Q.** With `NCc1cccc(-c2cc(COc3ccccc3C(=O)O)cc3ccoc23)c1` [Compound 293c, 2-((7-(3-(aminomethyl)phenyl)benzofuran-5-yl)methoxy)benzoic acid] as the molecule, how does the pIC50 read?
**A.** Its pIC50 is > 6.00.

**Q.** How did the pIC50 turn out when `NCc1cccc(-c2cc(COc3ccccc3CC(=O)O)cc3cc(CNC(=O)c4ccccc4)oc23)c1` [Compound 294f, 2-(2-((7-(3-(aminomethyl)phenyl)-2-(benzamidomethyl)benzofuran-5-yl)methoxy)phenyl)acetic acid] was run?
**A.** The pIC50 was > 6.00.

**Q.** How did the pIC50 turn out when `N#Cc1cccc(C(=O)NCc2cc3cc(COc4ccccc4CC(=O)O)cc(-c4cccc(CN)c4)c3o2)c1` [Compound 295c, 2-(2-((7-(3-(aminomethyl)phenyl)-2-((3-cyanobenzamido)methyl)benzofuran-5-yl)methoxy)phenyl)acetic acid] was run?
**A.** The pIC50 was > 6.00.

**Q.** `NCc1cccc(-c2cc(COc3ccccc3CC(=O)O)cc3cc(CNC(=O)Cc4ccccc4)oc23)c1` [Compound 296c, 2-(2-((7-(3-(aminomethyl)phenyl)-2-((2-phenylacetamido)methyl)benzofuran-5-yl)methoxy)phenyl)acetic acid] was tested. Which pIC50 did it give?
**A.** The pIC50 was > 6.00.

**Q.** `NCc1cccc(-c2cc(COc3ccccc3CC(=O)O)cc3cc(CNC(=O)c4ccc(F)cc4F)oc23)c1` [Compound 297c, 2-(2-((7-(3-(aminomethyl)phenyl)-2-((2,4-difluorobenzamido)methyl)benzofuran-5-yl)methoxy)phenyl)acetic acid] was tested. Which pIC50 did it give?
**A.** The pIC50 was > 6.00.

**Q.** `NCc1cccc(-c2cc(COc3cc4occc4cc3CC(=O)O)cc3ccoc23)c1` [Compound 298f, 2-(6-((7-(3-(aminomethyl)phenyl)benzofuran-5-yl)methoxy)benzofuran-5-yl)acetic acid] was tested. Which pIC50 did it give?
**A.** The pIC50 was > 6.00.

**Q.** `Cc1ccc(CC(=O)O)c(OCc2cc(-c3cccc(CN)c3)c3oc(F)cc3c2)c1` [Compound 299c, 2-(2-((7-(3-(aminomethyl)phenyl)-2-fluorobenzofuran-5-yl)methoxy)-4-methylphenyl)acetic acid] was tested. Which pIC50 did it give?
**A.** Its pIC50 is > 6.00.

**Q.** `NCc1nccc(-c2cc(COc3ccccc3CC(=O)O)cc3cc(F)oc23)c1F` [Compound 300c, 2-(2-((7-(2-(aminomethyl)-3-fluoropyridin-4-yl)-2-fluorobenzofuran-5-yl)methoxy)phenyl)acetic acid] was tested. Which pIC50 did it give?
**A.** The pIC50 was > 6.00.

**Q.** How did the pIC50 turn out when `NCc1cc(-c2cc(COc3ccccc3CC(=O)O)cc3cc(F)oc23)ccn1` [Compound 301b, 2-(2-((7-(2-(aminomethyl)pyridin-4-yl)-2-fluorobenzofuran-5-yl)methoxy)phenyl)acetic acid] was run?
**A.** The pIC50 was > 6.00.

**Q.** How did the pIC50 turn out when `NCc1cccc(-c2cc(COc3ccccc3CC(=O)O)cc3cc(COCc4cccnc4)oc23)c1` [Compound 302f, 2-(2-((7-(3-(aminomethyl)phenyl)-2-((pyridin-3-ylmethoxy)methyl)benzofuran-5-yl)methoxy)phenyl)acetic acid] was run?
**A.** The pIC50 was > 6.00.

**Q.** How did the pIC50 turn out when `COc1ccc(CC(=O)O)c(OCc2cc(-c3cccc(CN)c3)c3occc3c2)c1` [Compound 303g, 2-(2-((7-(3-(aminomethyl)phenyl)benzofuran-5-yl)methoxy)-4-methoxyphenyl)acetic acid] was run?
**A.** The pIC50 was > 6.00.

**Q.** With `Cc1ccc(CC(=O)O)c(OCc2cc(-c3cccc(CN)c3F)c3occc3c2)c1C` [Compound 304b, 2-(2-((7-(3-(aminomethyl)-2-fluorophenyl)benzofuran-5-yl)methoxy)-3,4-dimethylphenyl)acetic acid] as the molecule, how does the pIC50 read?
**A.** The pIC50 was > 6.00.

**Q.** `Cc1ccc(CC(=O)O)c(OCc2cc(-c3ccnc(CN)c3F)c3occc3c2)c1C` [Compound 305d, 2-(2-((7-(2-(aminomethyl)-3-fluoropyridin-4-yl)benzofuran-5-yl)methoxy)-3,4-dimethylphenyl)acetic acid] was tested. Which pIC50 did it give?
**A.** Its pIC50 is > 6.00.

**Q.** `CCN(CC)c1ccc(CC(=O)O)c(OCc2cc(-c3cccc(CN)c3)c3occc3c2)c1` [Compound 306f, 2-(2-((7-(3-(aminomethyl)phenyl)benzofuran-5-yl)methoxy)-4-(diethylamino)phenyl)acetic acid] was tested. Which pIC50 did it give?
**A.** The pIC50 was > 6.00.

**Q.** How did the pIC50 turn out when `CC(C)c1ccc(CC(=O)O)c(OCc2cc(-c3cccc(CN)c3F)c3occc3c2)c1` [Compound 307f, 2-(2-((7-(3-(aminomethyl)-2-fluorophenyl)benzofuran-5-yl)methoxy)-4-isopropylphenyl)acetic acid] was run?
**A.** The pIC50 was > 6.00.

**Q.** How did the pIC50 turn out when `CC(C)(C)c1cc(OCc2cc(-c3cccc(CN)c3)c3occc3c2)c(CC(=O)O)cc1Cl` [Compound 308h, 2-(2-((7-(3-(aminomethyl)phenyl)benzofuran-5-yl)methoxy)-4-(tert-butyl)-5-chlorophenyl)acetic acid] was run?
**A.** The pIC50 was > 6.00.

**Q.** `COCc1cc2cc(COc3cc(C(N)=O)ccc3CC(=O)O)cc(-c3cccc(CN)c3)c2o1` [Compound 309h, 2-(2-((7-(3-(aminomethyl)phenyl)-2-(methoxymethyl)benzofuran-5-yl)methoxy)-4-carbamoylphenyl)acetic acid] was tested. Which pIC50 did it give?
**A.** The pIC50 was > 6.00.

**Q.** `NCc1cc(-c2cc(COc3ccccc3CC(=O)O)cc3ccsc23)ccn1` [Compound 310c, 2-(2-((7-(2-(aminomethyl)pyridin-4-yl)benzo[b]thiophen-5-yl)methoxy)phenyl)acetic acid] was tested. Which pIC50 did it give?
**A.** The pIC50 was > 6.00.

**Q.** `NCc1cccc(-c2cc(COc3ccccc3Cc3nn[nH]n3)cc3ccoc23)c1` [Compound 311b, (3-(5-((2-((2H-tetrazol-5-yl)methyl)phenoxy)methyl)benzofuran-7-yl)phenyl)methanamine] was tested. Which pIC50 did it give?
**A.** Its pIC50 is < 5.00.

**Q.** With `CC(C)c1ccc(CC(=O)O)c(OCc2cc(-c3cccc(CN)c3)c3occc3c2)c1` [Compound 312b, 2-(2-((7-(3-(aminomethyl)phenyl)benzofuran-5-yl)methoxy)-4-isopropylphenyl)acetic acid] as the molecule, how does the pIC50 read?
**A.** Its pIC50 is > 6.00.

**Q.** How did the pIC50 turn out when `NCc1cccc(-c2cc(COc3cc(-c4ccoc4)ccc3CC(=O)O)cc3ccoc23)c1` [Compound 313c, 2-(2-((7-(3-(aminomethyl)phenyl)benzofuran-5-yl)methoxy)-4-(furan-3-yl)phenyl)acetic acid] was run?
**A.** Its pIC50 is > 6.00.

**Q.** With `Cc1cccc(OCc2cc(-c3cccc(CN)c3)c3occc3c2)c1CC(=O)O` [Compound 314f, 2-(2-((7-(3-(aminomethyl)phenyl)benzofuran-5-yl)methoxy)-6-methylphenyl)acetic acid] as the molecule, how does the pIC50 read?
**A.** The pIC50 was > 6.00.

**Q.** With `CCc1ccc(CC(=O)O)c(OCc2cc(-c3cccc(CN)c3F)c3occc3c2)c1` [Compound 315f, 2-(2-((7-(3-(aminomethyl)-2-fluorophenyl)benzofuran-5-yl)methoxy)-4-ethylphenyl)acetic acid] as the molecule, how does the pIC50 read?
**A.** Its pIC50 is > 6.00.

**Q.** How did the pIC50 turn out when `CCc1ccc(CC(=O)O)c(OCc2cc(-c3cccc(CN)c3)c3occc3c2)c1` [Compound 316b, 2-(2-((7-(3-(aminomethyl)phenyl)benzofuran-5-yl)methoxy)-4-ethylphenyl)acetic acid] was run?
**A.** The pIC50 was > 6.00.

**Q.** With `CC(C)(C)c1ccc(CC(=O)O)c(OCc2cc(-c3cccc(CN)c3)c3occc3c2)c1` [Compound 317f, 2-(2-((7-(3-(aminomethyl)phenyl)benzofuran-5-yl)methoxy)-4-(tert-butyl)phenyl)acetic acid] as the molecule, how does the pIC50 read?
**A.** Its pIC50 is > 6.00.

**Q.** How did the pIC50 turn out when `NCc1cccc(-c2cc(COc3cc(-c4ccco4)ccc3CC(=O)O)cc3ccoc23)c1` [Compound 318c, 2-(2-((7-(3-(aminomethyl)phenyl)benzofuran-5-yl)methoxy)-4-(furan-2-yl)phenyl)acetic acid] was run?
**A.** Its pIC50 is > 6.00.

**Q.** `NCc1cccc(-c2cc(COc3cc(-c4cccnc4)ccc3CC(=O)O)cc3ccoc23)c1` [Compound 319c, 2-(2-((7-(3-(aminomethyl)phenyl)benzofuran-5-yl)methoxy)-4-(pyridin-3-yl)phenyl)acetic acid] was tested. Which pIC50 did it give?
**A.** Its pIC50 is > 6.00.

**Q.** How did the pIC50 turn out when `Cc1cc(-c2ccc(CC(=O)O)c(OCc3cc(-c4cccc(CN)c4)c4occc4c3)c2)ccn1` [Compound 320c, 2-(2-((7-(3-(aminomethyl)phenyl)benzofuran-5-yl)methoxy)-4-(2-methylpyridin-4-yl)phenyl)acetic acid] was run?
**A.** Its pIC50 is > 6.00.

— patent US11370774B2, “Substituted benzofuran, benzopyrrole, benzothiophene, and structurally related complement inhibitors” (BioCryst Pharmaceuticals, Inc., priority 2018, dated 2022)
